According to ChEMBL document CHEMBL5034036, “Aryloxy Pivaloyloxymethyl Prodrugs as Nucleoside Monophosphate Prodrugs” (J Med Chem, 2021):

How the values were obtained:
A549 [1] = assay: Cytotoxicity against human A549 cells after 24 hrs measured by MTT assay; type: functional, cell-based; conditions: A549, 24 h
MCF7 [2] = assay: Cytotoxicity against human MCF7 cells assessed as inhibition of cell proliferation measured after 24 hrs by MTT assay; type: functional, cell-based; conditions: MCF7, 24 h
MCF7 [3] = assay: Cytotoxicity against human MCF7 cells assessed as inhibition of cell proliferation measured after 48 hrs by MTT assay; type: functional, cell-based; conditions: MCF7, 48 h
A549 [4] = assay: Cytotoxicity against human A549 cells after 48 hrs measured by MTT assay; type: functional, cell-based; conditions: A549, 48 h
[5] = Drug metabolism in human serum assessed as metabolite B formation by 31P-NMR analysis; type: ADME, cell-free
Liver carboxylesterase = molecular target: T1, Liver carboxylesterase (Sus scrofa, UniProt Q29550); assay: Stability in porcine liver esterase assessed as intact compound measured by NMR analysis; type: ADME; conditions: pig
T1 sequence (Q29550 whole entry): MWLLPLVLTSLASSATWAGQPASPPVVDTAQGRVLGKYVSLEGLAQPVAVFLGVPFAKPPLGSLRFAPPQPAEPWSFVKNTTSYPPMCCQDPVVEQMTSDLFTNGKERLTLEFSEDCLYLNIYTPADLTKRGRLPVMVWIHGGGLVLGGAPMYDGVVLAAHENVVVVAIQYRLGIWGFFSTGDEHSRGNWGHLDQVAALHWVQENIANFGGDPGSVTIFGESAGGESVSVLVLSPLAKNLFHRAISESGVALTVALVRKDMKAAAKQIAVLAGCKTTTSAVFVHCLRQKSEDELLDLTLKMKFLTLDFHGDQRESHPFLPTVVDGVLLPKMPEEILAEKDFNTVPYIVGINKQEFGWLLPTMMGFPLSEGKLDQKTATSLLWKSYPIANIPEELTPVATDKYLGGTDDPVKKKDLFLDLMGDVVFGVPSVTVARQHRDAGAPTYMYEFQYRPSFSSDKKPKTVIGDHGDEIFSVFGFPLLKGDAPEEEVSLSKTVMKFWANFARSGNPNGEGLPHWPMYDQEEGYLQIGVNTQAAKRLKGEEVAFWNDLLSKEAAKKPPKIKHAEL

[6] = Drug metabolism assessed as recombinant carboxypeptidase Y-mediated metabolite formation measured measured by 31P-NMR analysis; type: ADME; conditions: saccharomyces cerevisiae
[7] = Serum stability of the compound in human serum assessed as half life measured by 31P-NMR analysis; type: ADME, cell-free

Row | Structure (SMILES) | IC50 (A549 [1]) [µM] | IC50 (MCF7 [2]) [µM] | IC50 (MCF7 [3]) [µM] | IC50 (A549 [4]) [µM] | Drug metabolism [5] | Stability (Liver carboxylesterase) | Drug metabolism [6] | half-life [7] [h]
1 | CC(C)(C)C(=O)OCOP(=O)(OC[C@H]1O[C@@H](n2cc(F)c(=O)[nH]c2=O)C[C@@H]1O)Oc1cccc2ccccc12 (stereo partly drawn) | 52.5 | 28.8 | 35.5 | 34.5 |  |  |  | 
2 | CC(C)(C)C(=O)OCOP(=O)(OC[C@H]1O[C@@H](n2cc(F)c(=O)[nH]c2=O)C[C@@H]1O)Oc1ccccc1 (stereo partly drawn) |  | 63.6 | 13.1 |  | Metabolite_Detected | Stable | Metabolite_Notdetected | ≥ 12
3 | COC(=O)[C@H](C)NP(=O)(OC[C@H]1O[C@@H](n2cc(F)c(=O)[nH]c2=O)C[C@@H]1O)Oc1ccccc1 (stereo partly drawn) | 69.5 | > 100 | 84.8 | 36 |  |  |  | 
4 | O=c1[nH]c(=O)n([C@H]2C[C@H](O)[C@@H](CO)O2)cc1F [FLOXURIDINE] | > 100 | > 100 | 46.9 | > 100 |  |  |  | 
